From patent US20070148090A1, “Per (3,6-anhydro) cyclodextrin derivatives, preparation thereof and use thereof for transporting metal elements to biological targets or for decontaminating biological targets of fluids” (priority 2003, published 2007)
Entries after “also recorded” stand apart in the source; their conditions may differ.

Tests used:
[1] = complexation of lead on ion-loaded thin layer chromatography plates (1/Rf); assay type: binding; conditions: Polygram Ionex 25-SA-Na plates loaded with Pb^2+, developed four times in water; FIG. 4
Text: (§1) To evaluate the complexation, ion-loaded thin layer chromatography plates which allow rapid evaluation of the complexation of these ions by the species to be evaluated are used. In the present case, plates of Polygram Ionex 25-SA-Na type (Macherey-Nagel, ref: 80613) loaded with various counterions were used. In each test, the compound to be tested is introduced onto the plate, and if the compound complexes the ions, they will be retained on the plate. The plates are then developed four times in water, because of the small amount of migration of the cyclodextrin derivatives, and then the degree of complexation is determined through the value 1/Rf, where Rf represents the ratio: (distance covered by the cyclodextrin derivative/distance covered by the solvent).
(§2) Measurements of degree of complexation of lead (in the form Pb^2+) and of erbium in the form (Er^3+) were carried out for the following three compounds: • the base cyclodextrin mono-2-O-carboxyméthyle-per-(3,6-anhydro)cyclomaltohexaose (designated (1) in FIG. 4); • a cyclodextrin in accordance with the invention, prepared in the context of Example 1 (denoted (2) in FIG. 4); • a cyclodextrin in accordance with the invention, prepared in the context of Example 2 (denoted (3) in FIG. 4).

[2] = complexation of erbium on ion-loaded thin layer chromatography plates (1/Rf); assay type: binding; conditions: Polygram Ionex 25-SA-Na plates loaded with Er^3+, developed four times in water; FIG. 4
Text: as §1, §2

| Substance | lead-complexation properties (degree of complexation, 1/Rf) [1] | erbium-complexation properties (degree of complexation, 1/Rf) [2] |
| --- | --- | --- |
| [(mono-2-O-methyl(mono-ε-amidopoly-L-Lysine)]-per-(3,6-anhydro)-α-cyclodextrin [Example 2] | particularly advantageous | particularly advantageous; also recorded: complex erbium |
| mono-2-O-carboxymethyl-per-(3,6-anhydro)cyclomaltohexaose [noncoupled per(3,6-anhydro)cyclodextrin, reference compound] |  | does not complex erbium |
